Source: paper PMC10126473 (Frontiers in Pharmacology, 2023)

Legend:
[1] = Incubation in liver cytosolic fractions; format: in vitro ADME; conditions: mouse, hamster, human, read-out: in vitro metabolic half-life (t1/2)
Procedure: The in vitro metabolic stability of PDN was determined in the plasma and liver fractions of three species. […] Based on the formation of Nc in plasma, about 51%, 16%, and 10% of depleted PDN were converted to Nc in mouse, hamster, and human plasma, respectively. PDN was also metabolized in the liver microsomes. However, due to the fast metabolism of formed Nc in liver microsomes (sequential metabolism), only a trace amount of Nc was detected after incubation of PDN. Therefore, the metabolism kinetics of PDN was investigated to obtain the Vmax, in vitro, app and Km values of PDN depletion (Table 3).

[2] = Mouse PK and tissue distribution study (non-compartmental analysis); conditions: male, C57BL/6, mouse, in vivo; for Cmax: Cmax Obs
Procedure: The in-life study (Animal Study Protocol Number: NIH ORS-51) was conducted at the NIH Animal Facility by the Division of Veterinary Resources (DVR, Bethesda, MD). In this study, 25–35 g male C57BL/6 mice (Charles River Laboratories, Frederick, MD) were used. For the IV groups, 66 mice (33 mice per dosing group, 3 mice per timepoint) were used for a single bolus IV dose of 3 or 10 mg/kg of PDN via tail vein injection. […] The IV and PO doses were selected to obtain a complete concentration profile in plasma and tissues, based on a preliminary study. Animals were not fasted in this study. […] All dosing solutions were freshly prepared on the day of dosing. At designated time points, blood samples were collected, and mice were euthanized with CO2 in accordance with NIH ARAC Guidelines after blood collection. The death was ensured by cervical dislocation or transthoracic puncture. Lung, liver, adipose, brain, heart, small intestine, kidney, skeletal muscle, and spleen samples were obtained from mice. […] Tissue samples were rinsed with cold saline, dried on filtrate paper, weighed, and snap frozen by placing into dry ice after collection. All samples were stored at −80°C until the analysis. All blood samples were collected in K2EDTA tubes and centrifuged at 3000 g for 10 min at 4°C to obtain plasma. Plasma samples were transferred to tubes preloaded with NaF (final concentration at 5 mM in 200 µL plasma) and stored at −80°C until analysis.
For fat tissue, an additional 3-fold volume of acetonitrile was added to the water homogenate and was vortexed in a shaker for another 30 min.
A 10 μ aliquot of samples, blank controls (blank plasma or tissue homogenates), quality controls (QC), and standards were added into 200 μ acetonitrile solution with 100 ng/mL tolbutamide (internal standard, IS). All samples were then thoroughly shaken for 5 min to precipitate proteins. The samples were centrifuged at 3000 rpm and 4°C for 30 min. The supernatant was injected for UPLC-MS/MS analysis.
The mobile phase consisted of 0.1% formic acid in water (A) and 0.1% formic acid in acetonitrile (B), the flow rate was 600 μL/min. […] All analyses were carried out using a Waters Acquity I-Class UPLC interfaced with a Waters Xevo TQ-S mass spectrometer. The mass spectrometer multiple reaction monitoring (MRM) experiment was operated with an ESI source at negative mode with spray voltage of 1 kV, and temperature of 600°C. Both Q1 and Q3 were set at unit resolution. […] The correlation coefficients of the calibration curves were all greater than 0.99. […] The linear range, precision and accuracy of QCs in various tissues and plasma are shown in Supplementary Table S1 and Supplementary Table S2.
The area under the concentration vs. time curve (AUC) was calculated using the linear trapezoidal method. The terminal rate constant (λ) was obtained from the slope of at least three data points of the apparent terminal phase of the log linear concentration vs. time curve. AUC0–∞ was estimated as the sum of the AUC0–t (where t is the time of the last measurable concentration) and Ct/λ. […] Bioavailability (F) was calculated using ratios of dose-normalized AUC of PO and IV administration.

O=C(Nc1ccc([N+](=O)[O-])cc1Cl)c1cc(Cl)ccc1OC(=O)N1CCNCC1 [PDN]
half-life [1]: > 120 min | Kp [2]: 8 to 44 | AUC(0-inf) ([2]; iv, 3 mg/kg): 1190 ng·h/mL | clearance ([2]; iv, 3 mg/kg, CLp Obs, mice, IV 3 mg/kg PDN, plasma): 1.05 mL/min | Vd ([2]; iv, 3 mg/kg, Vdss Obs, mice, IV 3 mg/kg PDN, plasma): 0.28 L | half-life ([2]; iv, 3 mg/kg, t1/2 Obs, mice, IV 3 mg/kg PDN, adipose): 167 min | half-life ([2]; iv, 3 mg/kg, t1/2 Obs, mice, IV 3 mg/kg PDN, brain): 134 min | half-life ([2]; iv, 3 mg/kg, t1/2 Obs, mice, IV 3 mg/kg PDN, heart): 103 min | half-life ([2]; iv, 3 mg/kg, t1/2 Obs, mice, IV 3 mg/kg PDN, intestine): 161 min | half-life ([2]; iv, 3 mg/kg, t1/2 Obs, mice, IV 3 mg/kg PDN, kidney): 186 min | half-life ([2]; iv, 3 mg/kg, t1/2 Obs, mice, IV 3 mg/kg PDN, lung): 185 min | half-life ([2]; iv, 3 mg/kg, t1/2 Obs, mice, IV 3 mg/kg PDN, muscle): 115 min | half-life ([2]; iv, 3 mg/kg, t1/2 Obs, mice, IV 3 mg/kg PDN, plasma): 184 min | half-life ([2]; iv, 3 mg/kg, t1/2 Obs, mice, IV 3 mg/kg PDN, spleen): 206 min | AUC(0-inf) ([2]; iv, 10 mg/kg): 4100 ng·h/mL | clearance ([2]; iv, 10 mg/kg, CLp Obs, mice, IV 10 mg/kg PDN, plasma): 1.02 mL/min | Vd ([2]; iv, 10 mg/kg, Vdss Obs, mice, IV 10 mg/kg PDN, plasma): 0.31 L | half-life ([2]; iv, 10 mg/kg, t1/2 Obs, mice, IV 10 mg/kg PDN, brain): 203 min | half-life ([2]; iv, 10 mg/kg, t1/2 Obs, mice, IV 10 mg/kg PDN, heart): 172 min | half-life ([2]; iv, 10 mg/kg, t1/2 Obs, mice, IV 10 mg/kg PDN, intestine): 227 min | half-life ([2]; iv, 10 mg/kg, t1/2 Obs, mice, IV 10 mg/kg PDN, kidney): 287 min | half-life ([2]; iv, 10 mg/kg, t1/2 Obs, mice, IV 10 mg/kg PDN, liver): 216 min | half-life ([2]; iv, 10 mg/kg, t1/2 Obs, mice, IV 10 mg/kg PDN, lung): 211 min | half-life ([2]; iv, 10 mg/kg, t1/2 Obs, mice, IV 10 mg/kg PDN, muscle): 279 min | half-life ([2]; iv, 10 mg/kg, t1/2 Obs, mice, IV 10 mg/kg PDN, plasma): 211 min | half-life ([2]; iv, 10 mg/kg, t1/2 Obs, mice, IV 10 mg/kg PDN, spleen): 194 min | half-life ([2]; iv, 10 mg/kg, t1/2 in all other tissues, mice, IV 3 and 10 mg/kg PDN): 102 to 288 min | half-life ([2]; iv, 10 mg/kg, terminal t1/2 in plasma, mice, IV 3 and 10 mg/kg PDN): 186 to 210 min | clearance ([2]; iv, 10 mg/kg, total plasma clearance (CLp), mice, IV 3 and 10 mg/kg PDN): 1.02 to 1.05 mL/min | Vd ([2]; iv, 10 mg/kg, volume of distribution at steady-state (Vdss), mice, IV 3 and 10 mg/kg PDN): 0.28 to 0.31 L | AUC(0-inf) ([2]; po, 10 mg/kg): 3520 ng·h/mL | CL/F ([2]; po, 10 mg/kg): 1.18 mL/min | Vd/F ([2]; po, 10 mg/kg): 0.33 L | Cmax ([2]; po, 10 mg/kg, mice, PO 10 mg/kg PDN, adipose): 547 ng/g | Cmax ([2]; po, 10 mg/kg, mice, PO 10 mg/kg PDN, brain): 715 ng/g | Cmax ([2]; po, 10 mg/kg, mice, PO 10 mg/kg PDN, heart): 3040 ng/g | Cmax ([2]; po, 10 mg/kg, mice, PO 10 mg/kg PDN, intestine): 15400 ng/g | Cmax ([2]; po, 10 mg/kg, mice, PO 10 mg/kg PDN, kidney): 5860 ng/g | Cmax ([2]; po, 10 mg/kg, mice, PO 10 mg/kg PDN, liver): 240 ng/g | Cmax ([2]; po, 10 mg/kg, mice, PO 10 mg/kg PDN, lung): 22600 ng/g | Cmax ([2]; po, 10 mg/kg, mice, PO 10 mg/kg PDN, muscle): 1120 ng/g | Cmax ([2]; po, 10 mg/kg, mice, PO 10 mg/kg PDN, plasma): 606 ng/mL | Cmax ([2]; po, 10 mg/kg, mice, PO 10 mg/kg PDN, spleen): 8080 ng/g | bioavailability ([2]; po, 10 mg/kg, F (bioavailability) Obs, mice, PO 10 mg/kg PDN): 85.6% | Tmax ([2]; po, 10 mg/kg, Tmax Obs, mice, PO 10 mg/kg PDN, adipose): 1.5 h
